The test system of data set [1] is fibroblast to myofibroblast transdifferentiation (primary human lung fibroblasts and primary rodent HSCs). The data set is described as follows: High content imaging and western based assay of fibroblast to myofibroblast transdifferentiation (α-SMA). The data set is classed as cell-based. The conditions noted are these: graded, TGF-β induced fibroblast to myofibroblast transdifferentiation.

Data set [2] concerns the target T1, Cyp3A4 (Homo sapiens, UniProt P08684). In words: Cyp reversible inhibition assay (human liver microsomes). The procedure: The purpose of this assay was to determine reversible inhibition of Cyp enzyme with a given compound using a substrate probe turnover as the surrogate for inhibition. This was done with human liver microsomes rather an isolated enzyme to account for metabolites of parent drug leading to a potential drug-drug interaction through Cyp inhibition. The substrate turnover (for example conversion of midazolam to hydroxyl midazolam) was monitored by LCMSMS (Q1/Q2=342.2/203.2). Test compounds were tested in a 7-point dose response curve starting from 50 μM to 50 nM (˜3-fold dilution series).
The detailed protocol was as follows: • Prepared test compounds and standard inhibitors working solution (100×) • Pulled microsomes out of the −80° C. freezer to thaw on ice, labeled with the date and put back to freezer immediately after using. • Added 20 μL of the substrate solutions to corresponding wells. • Added 20 μL PB to Blank wells. • Added 2 μL of the test compounds and positive control working solution to corresponding wells. • Added 2 μL MeOH to No Inhibitor wells and Blank wells. • Prepared HLM working solution. • Added 158 μL of the HLM working solution to all wells of incubation plate. • Pre-warmed the plate for about 10 min at 37° C. water bath. • Prepared NADPH cofactor solution. • Added 20 μL NADPH cofactor to all incubation wells. • Mixed and incubated for 10 minutes at 37° C. water bath. • At the time point, terminated the reaction by adding 400 μL cold stop solution (200 ng/mL Tolbutamide in ACN). • Centrifuged the samples at 4000 rpm for 20 minutes to precipitate protein. • Transferred 200 μL supernatant to 200 μL HPLC water and shook for 10 min. • Analyzed samples by LC/MS/MS.

The test system of data set [3] is Candida albicans (ATCC 10231). The data set is described as follows: Candida albicans anti-fungal MIC potency determination. The data set is classed as cell-based. The procedure:
The wild type Candida albicans (ATCC 10231) was used and Fluconazole, amphotericin B, itraconazole and terbinafine were purchased from Sigma and used as positive controls.
The highest assay concentration for all test compounds and fluconazole was 100 μM. Fluconazole was also tested at the highest concentration of 64 μg/ml, and amphotercin B and terbinafine at 16 and 64 μg/ml. The test compounds were in DMSO stock solution at a concentration of 10 mM. Two stock solutions in DMSO were prepared for fluconazole at 10 mM and 6.4 mg/ml. Amphotericin B and terbinafine stock solutions in DMSO were prepared at 1.6 and 6.4 mg/ml.
Serial dilution of 100× stock solutions: 4 μl of stock solution was added into 196 μl of RPMI1640 (MOPS buffered and free of HEPES and sodium bicarbonate) in the first well of a row of a sterile u-bottom 96-well plate. The rest of the wells was filled with 100 μl RPMI1640. The 2-fold serial dilution was made sequentially by transferring 100 μl solution to the next well and mixing by pipetting, until 11th well. The extra 100 μl in 11th well was discarded. Therefore, the compound wells contained 100 μl of 2× of testing concentrations of drugs in RPMI1640. The 12th well was filled with only 100 μl RPMI1640.
C. albicans 3147 (ATCC 10231) glycerol frozen stock was streaked on Sabouraud dextrose agar (SDA). The plate was incubated at 35° C. ambient atmosphere for 20 h. Single colonies were suspended into sterile saline until turbidity reached 0.1 (1-5×10^6 CFU/ml) using a Siemens turbidity meter. This suspension was diluted 50× in RPMI1640 in a 15 ml conical, and then it was further diluted 20× in RPMI1640 in a 50 ml conical. This gave 1-5×10^3 CFU/ml suspension and was used as inoculum. The cell density in inoculum was plate-counted to be 4.94×10^3 CFU/ml.
The plates were incubated at 35° C. in ambient atmosphere. The photos were taken at 24 h and 48 h. The MIC end points for fluconazole and amphotericin B were read according to the M27-A3 protocol (Reference Method for Broth Dilution Antifungal Susceptibility Testing of Yeasts; Approved Standard-Third Edition, M27-A3 standard published Jan. 1, 2008 by Clinical and Laboratory Standards Institute). The MIC for compounds for test cmpds and terbinafine (not mentioned in M27-A3 protcol) were read as if they were azoles.

For data set [4], the target named is T1, Cyp3A4. In words: Cyp time-dependent inhibition (TDI) assay (human liver microsomes). Also on record: The TDI assay was generally performed in liver microsomes; from tissue; host or cells: human liver microsomes. To be noted: for IC50: human liver microsomes; for TDI ratio: (−) NADPH/(+) NADPH: IC50 shift, >1.5-fold considered positive for TDI. The data set is classed as in vitro ADME. As to the method:
The data from this assay was used in conjunction to the reversible inhibition assay. […] Then both incubation sets were diluted with fresh assay buffer containing NADPH Cyp specific substrates (midazolam for Cyp3A4) and inhibition of midazolam hydroxylation was measured by LC-MS/MS (Q1/Q2=m/z 342.2/203.2).
For orientation: Liver microsomes are vesicles of endoplasmic reticulum, rich in cytochrome P450 enzymes.

Where [5] appears, read: Cyp 3A4 midazolam LCMS IC50, human liver microsomes, substrate midazolam.
The mark [6] stands for this setting: Cyp 3A4 testosterone LCMS IC50, human liver microsomes, substrate testosterone.
[7] abbreviates: ATCC10231, 24 h, read-out: C. Albicans MIC90 at 24 h.
Setting [8] is: ATCC10231, 48 h, read-out: C. Albicans MIC90 at 48 h.
Setting [9] is: 20 min pre-incubation with NADPH, read-out: 3A4-Midazolam IC50 (+) NADPH.
Where [10] appears, read: 20 min pre-incubation without NADPH, read-out: 3A4-Midazolam IC50 (−) NADPH.

Like-named read-outs stand apart in the source and are kept apart here.

T1 sequence (P08684 whole entry): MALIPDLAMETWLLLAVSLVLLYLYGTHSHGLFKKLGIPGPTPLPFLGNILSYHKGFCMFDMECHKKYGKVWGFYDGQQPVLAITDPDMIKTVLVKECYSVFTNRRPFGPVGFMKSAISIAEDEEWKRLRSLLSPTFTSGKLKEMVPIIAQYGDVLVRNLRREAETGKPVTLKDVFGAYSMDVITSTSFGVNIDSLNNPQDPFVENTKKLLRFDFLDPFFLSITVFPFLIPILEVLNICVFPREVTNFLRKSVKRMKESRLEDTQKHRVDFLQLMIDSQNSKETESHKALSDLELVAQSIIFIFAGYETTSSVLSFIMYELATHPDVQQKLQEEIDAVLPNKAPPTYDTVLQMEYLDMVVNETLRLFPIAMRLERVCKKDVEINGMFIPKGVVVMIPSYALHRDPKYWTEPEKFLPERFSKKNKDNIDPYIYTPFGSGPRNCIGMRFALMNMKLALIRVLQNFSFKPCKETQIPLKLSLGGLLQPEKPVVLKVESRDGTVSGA

`CCC(C)n1ncn(-c2ccc(N3CCN(c4ccc(OC[C@@H]5CO[C@@](Cc6ccnnc6)(c6ccc(Cl)cc6Cl)O5)cc4)CC3)cc2)c1=O` (stereo partly drawn) [Compound 22]: the EC50 (as a rule, the concentration needed to bring the measured effect to its halfway point) in data set [1] is less than 0.5 µM. Further, the IC50 at Cyp3A4 [2] (setting [5]), at Cyp3A4 [2] (setting [6]), on Cyp3A4 [4] (setting [9]) and at Cyp3A4 [4] (setting [10]) was greater than 50 µM in each case. The MIC90 in data set [3] (setting [7]) and in data set [3] (setting [8]) was greater than 100 µM throughout. On Cyp3A4 [4], the “TDI ratio: (−) NADPH/(+) NADPH” value is on record as ~1 (no TDI).
For the molecule `CCC(C)n1ncn(-c2ccc(N3CCN(c4ccc(OC[C@@H]5CO[C@@](Cn6nccn6)(c6ccc(Cl)cc6Cl)O5)cc4)CC3)cc2)c1=O` (stereo partly drawn) [Compound 15], the EC50 in data set [1] lay in the range of 0.5 to 5 µM. In addition, the IC50 – broadly, the concentration that inhibits the measured activity by half – on Cyp3A4 [2] (setting [5]) is greater than 50 µM; on Cyp3A4 [2] (setting [6]), greater than 50 µM; on Cyp3A4 [4] (setting [9]) it was 41 µM; on Cyp3A4 [4] (setting [10]), greater than 50 µM. Also, the MIC90 in data set [3] (setting [7]) and in data set [3] (setting [8]) was greater than 100 µM in each case. Besides, the “TDI ratio: (−) NADPH/(+) NADPH” value at Cyp3A4 [4] is recorded as ~1.2 (no TDI).
On to `CCC(C)n1ncn(-c2ccc(N3CCN(c4ccc(OC[C@@H]5CO[C@@](Cn6nccn6)(c6ccccc6)O5)cc4)CC3)cc2)c1=O` (stereo partly drawn) [Compound 42], for which the EC50 in data set [1] was less than 0.5 µM. The IC50 on Cyp3A4 [2] (setting [5]), at Cyp3A4 [2] (setting [6]), on Cyp3A4 [4] (setting [9]) and on Cyp3A4 [4] (setting [10]) was greater than 50 µM each time. The MIC90 in data set [3] (setting [7]) and in data set [3] (setting [8]) was greater than 100 µM each time. The “TDI ratio: (−) NADPH/(+) NADPH” value at Cyp3A4 [4] is ~1 (no TDI).

The values are drawn from US9981956B2, “Small molecule inhibitors of fibrosis” (THE CALIFORNIA INSTITUTE FOR BIOMEDICAL RESEARCH, priority 2013, dated 2018).
